Measurements from patent publication US12642771B2, “Compositions comprising PGI2-receptor agonists and processes for the preparation thereof” (Arena Pharmaceuticals, Inc., priority 2017, dated 2026).

Assays:
Type in all cases: in vivo, human
[1] = Example 7A: open-label single-dose pharmacokinetic study, modified-release tablet vs immediate-release capsule, fasted healthy subjects
Protocol: A. An open-label, fixed sequence, non-randomized study in two cohorts of healthy male and non-pregnant, non-lactating female subjects was conducted. Two cohorts with twelve subjects in each were enrolled to ensure data in ten evaluable subjects per cohort.
Each subject in Cohort 1 received each of the following regimens, in the fasted state, in a sequential manner over four treatment periods: • Regimen A (0.03 mg immediate-release Compound 1): 1×0.03 mg Compound 1 immediate-release capsule. • Regimen B (0.06 mg modified-release Compound 1): 1×0.06 mg Compound 1 modified-release tablet as disclosed herein. • Regimen C (0.12 mg modified-release Compound 1): 2×0.06 mg Compound 1 modified-release tablets as disclosed herein. • Regimen D (0.18 mg modified-release Compound 1) 3×0.06 mg Compound 1 modified-release tablets as disclosed herein.
Subjects received each regimen in the morning of Day 1, following an overnight fast of a minimum of 8 hours. PK samples were taken from subjects at 72 hours post-dose. There was a minimum washout period of 7 days between each administration of investigational medicinal product (IMP) (i.e., selexipag film-coated tablet(s), Compound 1 immediate-release capsule(s), and/or Compound 1 modified-release tablet(s)).
Venous blood samples were withdrawn at regular time intervals. Plasma concentration data for Compound 1 and the selexipag parent and active metabolite were analyzed using appropriate non-compartmental techniques to obtain estimates of one or more of the following parameters:
One or more of the above pharmacokinetic parameters were determined at one or more of the following time points: pre-dose and (referring to hours after administration): 0.5, 1, 1.5, 2, 3, 4, 5, 6, 8, 10, 12, 16, 20, 24, 36, 48, and 72 hours.

[2] = Example 8: 22-week randomized, double-blind, placebo-controlled study (PVR, 6MWD, plasma levels, adverse events)
Protocol: A 22-week randomized, double-blind, placebo-controlled study with a dose titration period of up to 9 weeks was conducted. Sixty-one patients were randomized 2:1 Compound 1 to placebo. Right Heart Catheterization (RHC) measurements were obtained prior to study Day 1 of the dose titration period and at Week 22. The following values were obtained and recorded: pulmonary artery pressure (PAP) (systolic, diastolic, and mean), heart rate (HR), right atrial pressure (RAP), pulmonary capillary wedge pressure (PCWP) right ventricular pressure (RVP) and cardiac output (CO), pulmonary vascular resistance (PVR), arterial and mixed venous oxygen saturation […] (if applicable). Systemic vascular resistance (SVR) was estimated from blood pressure measurements. The 6-minute walk test (6MWD) was conducted according to the modified guidelines issued by the American Thoracic Society. See Am J Respir Crit Care Med 166:111-117, 2002.
Primary efficacy endpoints for the study were: a) change from baseline in PVR after 22 weeks of treatment, and b) change from baseline in 6 MWD after 22 weeks of treatment.
Compound 1 was administered as a capsule in 0.01, 0.02, 0.03, 0.04, and 0.10 mg dose strengths. The formulation was supplied as a liquid-filled, size 4, hard-gelatin capsule containing Compound 1, polyoxyl 40 hydrogenated castor oil (Kolliphor® RH40) NF, butylated hydroxytoluene (BHT)NF, and colloidal silicon dioxide NF.
The starting dose of Compound 1 was 0.01 mg twice daily. The dose of Compound 1 was titrated according to patient tolerability. If the initial dose was tolerated (0.01 mg twice daily), then the dose was increased once a week in the following fashion: 0.02 mg twice daily, 0.03 mg twice daily, 0.04 mg twice daily, 0.06 mg twice daily, 0.08 mg, 0.1 mg twice daily, 0.2 mg twice daily and 0.3 mg twice daily. The dose was optionally escalated to a possible maximum total daily dose of 0.6 mg (0.3 mg twice daily), pending tolerability.

[3] = Example 7B: open-label multiple-dose escalation pharmacokinetic study of modified-release tablet, fasted or fed healthy subjects
Protocol: B. A second open-label, non-randomized pharmacokinetic study was conducted in healthy subjects. Fasted (cohort 1; n=19) or fed state (cohort 2, n=18) subjects received a modified-release tablet formulation of Compound 1 in a dose escalation sequence over 25 days (once daily dosing started at 0.06 mg and was slowly titrated, depending upon individual subject tolerability, by additional 0.06 mg dose increments every 5 days up to 0.3 mg once daily).
Each subject received a once daily dose of the modified-release Compound 1 for 5 days, with up to four sequential dose escalations every 5 days: • Regimen A (0.06 mg modified-release Compound 1): 1×0.06 mg Compound 1 modified-release tablet for 5 days • Regimen B (0.12 mg modified-release Compound 1): 2×0.06 mg Compound 1 modified-release tablet for 5 days • Regimen C (0.18 mg modified-release Compound 1): 3×0.06 mg Compound 1 modified-release tablet for 5 days • Regimen D (0.24 mg modified-release Compound 1): 4×0.06 mg Compound 1 modified-release tablet for 5 days • Regimen E (0.30 mg modified-release Compound 1): 5×0.06 mg Compound 1 modified-release tablet for 5 days

[4] = modified-release compared to immediate-release formulation
[5] = modified-release tablet (compared with immediate-release capsule)

In the case of `O=C(O)COC[C@H]1CC[C@H](COC(=O)N(c2ccccc2)c2ccc(Cl)cc2)CC1` [Compound 1, 2-(((1r,4r)-4-(((4-chlorophenyl)(phenyl)carbamoyloxy)methyl)cyclohexyl)methoxy)acetic acid], the “Relative bioavailability based on individual dose-adjusted Cmax” value ([1]; 0.06, 0.12 and 0.18 mg modified-release tablet vs immediate-release capsule) is reported as “statistically significantly lower”, the “Relative bioavailability based on individual dose-adjusted ratios of AUC(0-last)” value ([1]; 0.06 and 0.12 mg modified-release tablet vs immediate-release capsule) is reported as “statistically significantly lower” and the “Dose-adjusted peak plasma exposure (Cmax/D), geometric mean ratio” value [1, 4] is reported as 28.7-41.2%. For the same compound, the “Dose-adjusted total plasma exposure (AUC/D), geometric mean ratio” value [1, 4] was 63.3-97.9%, the Cmax [1, 5] was “reduced the Cmax” and the Tmax [1, 5] was “increased Tmax”. The total plasma concentrations [1, 5] was “substantially maintaining similar total plasma concentrations”, the “Plasma concentrations at 24 hours post-dose” value ([1]; modified-release tablet compared to immediate release-formulation) was “higher” and the “Systemic exposure (Cmax and AUC), dose proportionality” value ([1]; oral modified-release tablet formulation) was “increased in a slightly higher than dose-proportional manner”. The Adverse events ([2]; 22-week study) was “consistent with other prostacyclin treatments”, the “6-minute walk distance (6MWD)” value ([2]; after 22 weeks of treatment) was “numerical improvement” and the “change from baseline in pulmonary vascular resistance (PVR) compared to placebo” value ([2]; after 22 weeks of treatment, capsule twice daily, titrated up to 0.3 mg twice daily) was “statistically significant change from baseline”. The “mean pre-dose and 4-hours post-dose plasma levels” value ([2]; immediate-release capsule twice daily, titrated, patients) was “appear similar to those previously observed in healthy human subjects”, the “correlation of 4 hour post-dose plasma concentrations with percent change from baseline in PVR and 6MWD” value ([2]; in vivo) was “strong and positive correlation” and the “Exposure in the fed and fasted states” value ([3]; after single administration and at steady state) was “similar”. The “increase of Cmax at steady state, female vs male subjects” value ([3]; modified-release tablet) was “greater than 42%”, the “mean plasma exposure measures, females compared to males” value ([3]; modified-release tablet once daily) was “Somewhat higher” and the peak-trough fluctuation ([3]; modified-release tablet once daily, across dose levels) was “low peak-trough fluctuation”. For the same compound, the “Tmax, fed state” value ([3]; modified-release tablet, fed vs fasted) was “delayed in the fed state”.
